The source of these data is US9771430B2, “Method of treating a metabolic disorder induced by obesity in a subject in need thereof by administering MK2/3 inhibitors” (THE TRUSTEES OF COLUMBIA UNIVERSITY IN THE CITY OF NEW YORK, priority 2011, dated 2017).

One assay deals with CaMKII. Kind of assay: Hepatic CaMKII phosphorylation in mice. The format is in vivo, mouse. As for the experimental part: FIGS. 1A-J. Glucagon and fasting activates hepatic CaMKII. FIG. 1A. CaMKII enzyme activity was assayed in triplicate wells of primary mouse HCs stimulated with 100 nM glucagon (Gluc) or vehicle control (Veh) for the indicated times (*P<0.05 and **P<0.01 vs. Veh; mean±S.E.M.). FIGS. 1B-1J. Extracts of HCs or liver were probed for phospho-CaMKII, total CaMKII, and β-actin by immunoblot assay. FIG. 1B. HCs were incubated with […] glucagon for the indicated times; FIG. 1C. Glucagon was added to HCs that were pre-treated for 1 h with vehicle control (Veh) or 5 μM BAPTA-AM; FIG. 1D. Glucagon was added to HCs that were pre-treated with 0.5 μM xestospongin (XesC) or to HCs from Ip3r1fl/fl mice transduced with adeno-LacZ control or adeno-Cre (bar graph=Ip3r1 mRNA levels); FIG. 1E. Glucagon was added to HCs that were pre-treated for 1 h with vehicle control (Veh) or 10 μM H89. FIG. 1F. […] FIGS. 1G-1J. In vivo experiments. In FIG. 1G, mice were treated for 30 min with 200 μg kg−1 body weight of glucagon i.p., and in FIG. 1H, mice were pre-treated with 10 pmol g−1 xestospongin C or vehicle control i.p. 4 days prior to glucagon treatment. In FIGS. 1I-1J, mice were fed ad libitum or fasted for 12 h, or fasted for 12 h and then re-fed for 4 h.
FIGS. 28A-G. (Related to FIGS. 1 and 22). FIG. 28A Mice were injected i.p. with the indicated doses of glucagon and sacrificed 15 min later. The livers were probed for phospho- and total CaMKII and β-actin by immunoblot. FIG. 28B Mice (n=5/group) were fed ad libitum or fasted for 12 h and then plasma was assayed for glucagon (*P=0.007; mean±S.E.M.). FIG. 28C Mice were injected i.p. with 10 pmol g^−1 xestospongin C (XesC) or vehicle control each day for 4 days and then fed ad libitum or fasted for 12 h. Liver phospho-CaMKII, total CaMKII, and β-actin levels were assayed by immunoblot. FIG. 28D Immunoblot of CaMKII in HCs transduced with adeno-LacZ vs. CA-CaMKII. FIG. 28E HCs were transduced with adeno-LacZ or KD-CaMKII. Cells were serum-depleted overnight and then assayed for CaMKII activity (*P<0.005; mean±S.E.M.). […]
Camk2g−/− mice were generated as described previously (Backs et al., 2010) and crossed onto the C57BL6/J background. […] Fasting blood glucose was measured in mice that were fasted for 12-14 h, with free access to water, using a glucose meter (One Touch Ultra, Lifescan). […] Blood glucose levels were measured over the following 2 h. […]
Camk2g^−/− mice were generated as described previously (Backs et al., 2010) and crossed onto the C57BL6/J background. ob/ob mice were obtained from Jackson Labs. […] Fasting blood glucose was measured in mice that were fasted for 12-14 h, with free access to water, using a glucose meter (One Touch Ultra, Lifescan). […] Blood glucose levels were measured over the following 2 h. […]

For a further assay, the system named is CRTC2. The assay can be described thus: CRTC2 dephosphorylation and nuclear translocation in primary hepatocytes. The format is cell-based, mouse. Conditions: inhibitor pre-treatment 1 h, glucagon 100 nM. As for the experimental part: HEK293T (ATCC) cells were cultured in DMEM containing 10% FBS (HyClone), […] penicillin-streptomycin. Mouse primary hepatocytes were isolated and cultured as previously described (18). Cellular fractionation studies were conducted as previously reported (18). For reporter studies, Ad-CRE-luc infected hepatocytes (1 pfu per cell) were exposed to glucagon (Gcg, 100 nM) for 2˜4 h. For cyclosporine A (CsA, 10 μM) or okadaic acid (OA, 100 nM) or cell permeable calcineurin autoinhibitory peptide (10 μM) or CN585 (100 μM) or Calyculin A (10 nM) or Xestospongin C (Xc, 2 μM) or H89 (30 μM) or BAPTA (50 μM) inhibition, hepatocytes were pre-treated with the inhibitors for one hour. Luciferase activities were normalized to β-galactosidase activity from adenoviral-encoded RSV β-gal. Calcineurin activity (test kit from Enzo Life Sciences) and cellular cAMP levels (test kit from Cayman Chemical Company) were measured according to manufacturer's instructions.
Immunoblot, immunoprecipitation, and immunostaining assays were performed as described (18). CRTC2, pCREB (Ser133), CREB, pAKT (Thr308), AKT, tubulin, HA, and FLAG antibodies were previously described (18). The antibodies anti-InsP3R1 (A302-158A) and InsP3R3 (A302-160A) were purchased from Bethyl Laboratories, anti-InsP3R2 (ab77838) from Abcam, anti-Calcineurin (610260) from BD Biosciences, anti-GRP78 (ADI-SPA-826-F) from Enzo Life Sciences, anti-phospho-PKA substrate (RRXS/T, 9624), anti-phospho-AKT substrate (RXXS/T, 9614) and CRTC2 (pS171, 2892) from Cell Signaling. CRTC2 (pS275) antibody was employed as described (19).

Assay [1] deals with IP3-mediated Ca2+ release. Particulars: cited from earlier work.

As usually defined, the IC50 is the concentration at which inhibition is half-maximal.

For the molecule “glucagon: hormone used to stimulate hepatocytes and mice”, the “hepatic CaMKII phosphorylation” value in the assay on CaMKII (bolus of i.p. glucagon) is recorded as “induced”. In addition, the “glucagon dose capable of phosphorylating CaMKII in the liver (as low as)” value in the assay on CaMKII (i.p.) was found to be 1 µg/kg.
For the molecule `C1CCC[C@H]2CCCN3CC[C@@H](CCCCCC[C@@H]4CCCN5CC[C@@H](CC1)O[C@@H]45)O[C@@H]23` [Xestospongin C], in the assay with CRTC2, the “glucagon-induced dephosphorylation (and nuclear translocation) of CRTC2” value is “blocked”. In assay [1], the “selectivity over the skeletal isoform of the ryanodine receptor type 1 (RyR-1)” value is recorded as “high selectivity”. The IC50 in assay [1] (read-out: IC50, blocker of IP3-mediated Ca2+ release) was 358 nM. Moreover, in the assay on CaMKII (i.p. xestospongin C 10 pmol g−1 for 4 days, then glucagon), the “glucagon-induced CaMKII phosphorylation in liver” value is reported as “markedly reduced”. In the assay on CaMKII (xestospongin C treatment of the mice, 12 h fast), the “fasting-induced phosphorylation of CaMKII in liver” value is “suppressed”.
